This is an account of results in PMC8151276, “An Integrated Approach toward NanoBRET Tracers for Analysis of GPCR Ligand Engagement” (Molecules, 2021).

For one experiment, the target named is T1, GCGR (Homo sapiens, UniProt P47871).
T1 construct: purchased Promega (in-house HiBiT-GPCR construct library, NanoBRET)
T1 sequence (P47871 26-477): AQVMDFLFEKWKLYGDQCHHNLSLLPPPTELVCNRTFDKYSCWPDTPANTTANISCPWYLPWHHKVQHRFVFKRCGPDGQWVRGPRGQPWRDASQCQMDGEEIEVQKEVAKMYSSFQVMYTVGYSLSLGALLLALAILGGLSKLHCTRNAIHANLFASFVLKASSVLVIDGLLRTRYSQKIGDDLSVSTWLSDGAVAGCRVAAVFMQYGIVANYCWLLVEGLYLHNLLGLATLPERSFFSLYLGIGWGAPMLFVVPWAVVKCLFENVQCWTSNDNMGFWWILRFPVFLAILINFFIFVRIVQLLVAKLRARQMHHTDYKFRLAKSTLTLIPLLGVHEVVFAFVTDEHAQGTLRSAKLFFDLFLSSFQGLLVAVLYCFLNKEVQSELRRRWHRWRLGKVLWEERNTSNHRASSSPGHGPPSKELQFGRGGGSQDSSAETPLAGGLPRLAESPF
Briefly: NanoBRET screen HiBiT-GCGR in HEK293. Format: binding. The settings on record: GCGR; 0.1μM tracer. As to the method:
(§1) Each tracer candidate was screened across the entire library of HiBiT-GPCR constructs using NanoBRET as the detection modality. As depicted in Figure 4A, the specificity of interactions was evaluated through decrease in BRET due to competitive displacement of a bound tracer by excess parental compound. Each tracer was analyzed for binding to each HiBiT-GPCR fusion in the absence and in the presence of competing parental compound. Briefly, HEK293 cells were transfected with HiBiT-GPCR constructs diluted into promoterless DNA to reduce expression and maximize translocation to the cell surface. Each tracer candidate was then screened at concentrations of 1 μM and 0.1 μM across cells expressing these fusions. Cells were treated for 1.5 h with tracer either alone or in the presence of 20 μM competing parental compound (i.e., control). BRET was measured upon addition of purified LgBiT and subsequent complementation with HiBiT genetically fused to a GPCR. The specificity of interactions was assessed through a decrease in BRET signal due to competitive displacement of the bound tracer. To further gauge the robustness of these interactions, the fold response over the control (i.e., BRETtracer/BRETcontrol) was calculated. We chose a 1.5-fold response, which translates to ≥7-fold signal over noise as the minimal threshold required to score an interaction as positive. […]. Below we highlight the screening results obtained for our exemplary fluorescent tracers based on Clozapine, Amitriptyline and AZD1283.
(§2) HiBiT-GPCR DNA constructs were diluted in 10 mM Tris pH 8 to a final concentration of 0.01 μg/μL, arrayed in 96-well plates and stored at −20 °C. For transfection, HEK293 cells were suspended in Opti-MEM (without phenol red) supplemented with 2% fetal bovine serum (Seradigm) and 100 units/mL penicillin–streptomycin (Gibco) at a final concentration of 220,000 cells/mL and dispensed into white 96-well plates at 90 μL/well. Subsequent transfections and screens were carried using an Agilent Bravo Automated Liquid Handling Platform. First, the 96-well HiBiT DNA arrays were diluted 25-fold in Opti-MEM (without serum or phenol red) to a final concentration of 0.0004 μg/μL and 20 μL of the diluted DNAs were transferred into new 96-well plates. Next, promoterless carrier DNA (1 μg/μL) was diluted 25-fold (0.04 μg/μL) and then dispensed into the diluted arrays at 20 μL/well. Following brief mixing, Viafect transfection reagent (Promega) diluted 16-fold into Opti-MEM was dispensed into the plates at 40 μL/well. After mixing by pipetting, plates were incubated for 10 min on the pipetting station deck. The DNA-transfection reagent complexes were then added to plates containing cells. To facilitate the screen, 10 μL of DNA-transfection reagent complexes were added in duplicates to the top 4 and bottom 4 rows, resulting in two identical 48-well arrays per plate. Plates with transfected cells were incubated for 18–20 h at 37 °C/5% CO2. A screen of each tracer across the entire library using two different concentrations requires duplicate plates of transfected cells. Depending on the number of tracers being screened, transfections can be scaled up using the same ratios. The next day, for each tracer, four 20× screening solutions in tracer dilution buffer (Promega) were prepared: two duplicates at final concentration of 20 μM and two duplicates at a final concentration of 2 μM. A competing unmodified compound was added to one of each duplicate at a final concentration of 400 μM. The four resulting solutions were diluted 4-fold in Opti-MEM without serum or phenol red to generate 5× solutions (5 µM and 0.5 µM tracer +/− 100 μM competing compound). To screen the library, a BioTek MultiFlo FX liquid dispenser was used to dispense 22.5 µL of tracer solution to the top 4 rows and 22.5 µL tracer + competing compound solution to the 4 bottom rows. Plates were briefly mixed on an orbital shaker and incubated for 1.5 h at room temperature. […]
On the technique in general: Bioluminescence resonance energy transfer reports proximity on the nanometre scale.
For the compound `O=C(CCOCCOCCOCCOCCNC(=O)CCc1ccc2n1[B-](F)(F)[N+]1=C(c3ccc[nH]3)C=CC1=C2)NCCCN1CCN(C2=Nc3cc(Cl)ccc3Nc3ccccc32)CC1` [Clozapine-a-2-NB590], the “NanoBRET Fold Response” value amounted to 0.94.

`CN1CCN(C2=Nc3cc(Cl)ccc3Nc3ccc(CNC(=O)CCOCCOCCOCCOCCNC(=O)CCc4ccc5n4[B-](F)(F)[N+]4=C(c6ccc[nH]6)C=CC4=C5)cc32)CC1` [Clozapine-b-2-NB590]: the “NanoBRET Fold Response” value was determined as 1.02.

Still in this experiment, the particulars now being: GCGR; 1μM tracer.
Regarding `O=C(CCOCCOCCOCCOCCNC(=O)CCc1ccc2n1[B-](F)(F)[N+]1=C(c3ccc[nH]3)C=CC1=C2)NCCCN1CCN(C2=Nc3cc(Cl)ccc3Nc3ccccc32)CC1` [Clozapine-a-2-NB590], the “NanoBRET Fold Response” value is given as 1.14.

Turning to `CN1CCN(C2=Nc3cc(Cl)ccc3Nc3ccc(CNC(=O)CCOCCOCCOCCOCCNC(=O)CCc4ccc5n4[B-](F)(F)[N+]4=C(c6ccc[nH]6)C=CC4=C5)cc32)CC1` [Clozapine-b-2-NB590], the “NanoBRET Fold Response” value is listed as 1.04.

Still in this experiment, the particulars now being: GCGR; tracer 0.1μM.
With `CC(C)N(CC[C@H](c1ccccc1)c1cc(CCNC(=O)CCOCCOCCOCCOCCNC(=O)CCc2ccc3n2[B-](F)(F)[N+]2=C(c4ccc[nH]4)C=CC2=C3)ccc1O)C(C)C` [Tolterodine-2-NB590], the “NanoBRET Fold Response” value was determined as 1.32.

Still in this experiment, the particulars now being: GCGR; tracer 1μM.
For `CC(C)N(CC[C@H](c1ccccc1)c1cc(CCNC(=O)CCOCCOCCOCCOCCNC(=O)CCc2ccc3n2[B-](F)(F)[N+]2=C(c4ccc[nH]4)C=CC2=C3)ccc1O)C(C)C` [Tolterodine-2-NB590], the “NanoBRET Fold Response” value is on record as 1.04.

For a further experiment, the target named is T2, PTGDR2 (Homo sapiens, UniProt Q9Y5Y4).
T2 construct: purchased Promega (in-house HiBiT-GPCR construct library, NanoBRET)
T2 sequence (Q9Y5Y4 1-395): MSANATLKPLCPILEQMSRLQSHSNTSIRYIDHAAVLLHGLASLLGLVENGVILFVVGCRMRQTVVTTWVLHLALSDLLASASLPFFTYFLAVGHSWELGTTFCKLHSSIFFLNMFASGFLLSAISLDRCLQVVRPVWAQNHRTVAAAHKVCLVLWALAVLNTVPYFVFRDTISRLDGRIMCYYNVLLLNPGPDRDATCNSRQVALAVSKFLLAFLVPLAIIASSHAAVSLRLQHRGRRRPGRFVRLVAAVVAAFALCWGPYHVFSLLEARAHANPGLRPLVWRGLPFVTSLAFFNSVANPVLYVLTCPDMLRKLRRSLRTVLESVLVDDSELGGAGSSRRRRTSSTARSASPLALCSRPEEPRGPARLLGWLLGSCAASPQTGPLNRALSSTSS
Kind of experiment: NanoBRET screen HiBiT-PTGDR2 in HEK293. The settings on record: PTGDR2; 0.1μM tracer. It is filed as binding. As for the experimental part: as §1, §2
Regarding `O=C(CCOCCOCCOCCOCCNC(=O)CCc1ccc2n1[B-](F)(F)[N+]1=C(c3ccc[nH]3)C=CC1=C2)NCCCN1CCN(C2=Nc3cc(Cl)ccc3Nc3ccccc32)CC1` [Clozapine-a-2-NB590], the “NanoBRET Fold Response” value is 1.01.

On to `CN1CCN(C2=Nc3cc(Cl)ccc3Nc3ccc(CNC(=O)CCOCCOCCOCCOCCNC(=O)CCc4ccc5n4[B-](F)(F)[N+]4=C(c6ccc[nH]6)C=CC4=C5)cc32)CC1` [Clozapine-b-2-NB590], for which the “NanoBRET Fold Response” value turned out to be 1.01.

Still in this experiment, the particulars now being: PTGDR2; 1μM tracer.
As for `O=C(CCOCCOCCOCCOCCNC(=O)CCc1ccc2n1[B-](F)(F)[N+]1=C(c3ccc[nH]3)C=CC1=C2)NCCCN1CCN(C2=Nc3cc(Cl)ccc3Nc3ccccc32)CC1` [Clozapine-a-2-NB590], the “NanoBRET Fold Response” value amounted to 1.00.

Regarding `CN1CCN(C2=Nc3cc(Cl)ccc3Nc3ccc(CNC(=O)CCOCCOCCOCCOCCNC(=O)CCc4ccc5n4[B-](F)(F)[N+]4=C(c6ccc[nH]6)C=CC4=C5)cc32)CC1` [Clozapine-b-2-NB590], the “NanoBRET Fold Response” value stood at 1.02.

The experiment is the same for the next values; noted with them: PTGDR2; tracer 0.1μM.
For `CC(C)N(CC[C@H](c1ccccc1)c1cc(CCNC(=O)CCOCCOCCOCCOCCNC(=O)CCc2ccc3n2[B-](F)(F)[N+]2=C(c4ccc[nH]4)C=CC2=C3)ccc1O)C(C)C` [Tolterodine-2-NB590], the “NanoBRET Fold Response” value came to 0.95.

Still in this experiment, the particulars now being: PTGDR2; tracer 1μM.
For the compound `CC(C)N(CC[C@H](c1ccccc1)c1cc(CCNC(=O)CCOCCOCCOCCOCCNC(=O)CCc2ccc3n2[B-](F)(F)[N+]2=C(c4ccc[nH]4)C=CC2=C3)ccc1O)C(C)C` [Tolterodine-2-NB590], the “NanoBRET Fold Response” value is 0.99.

The next experiment concerns the target T3, F2RL2 (Homo sapiens, UniProt O00254).
T3 construct: purchased Promega (in-house HiBiT-GPCR construct library, NanoBRET)
T3 sequence (O00254 22-374): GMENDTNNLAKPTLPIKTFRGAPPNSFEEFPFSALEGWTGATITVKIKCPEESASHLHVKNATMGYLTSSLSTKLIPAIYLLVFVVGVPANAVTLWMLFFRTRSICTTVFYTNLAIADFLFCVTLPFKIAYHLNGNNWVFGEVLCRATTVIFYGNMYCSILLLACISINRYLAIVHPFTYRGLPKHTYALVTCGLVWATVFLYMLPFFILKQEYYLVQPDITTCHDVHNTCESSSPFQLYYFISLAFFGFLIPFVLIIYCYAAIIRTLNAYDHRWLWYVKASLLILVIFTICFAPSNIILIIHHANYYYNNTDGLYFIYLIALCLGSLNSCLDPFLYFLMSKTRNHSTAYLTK
Kind of experiment: NanoBRET screen HiBiT-F2RL2 in HEK293. It is filed as binding. The settings on record: F2RL2; 0.1μM tracer. As for the experimental part: as §1, §2
As to `O=C(CCOCCOCCOCCOCCNC(=O)CCc1ccc2n1[B-](F)(F)[N+]1=C(c3ccc[nH]3)C=CC1=C2)NCCCN1CCN(C2=Nc3cc(Cl)ccc3Nc3ccccc32)CC1` [Clozapine-a-2-NB590], the “NanoBRET Fold Response” value was 1.02.

Consider `CN1CCN(C2=Nc3cc(Cl)ccc3Nc3ccc(CNC(=O)CCOCCOCCOCCOCCNC(=O)CCc4ccc5n4[B-](F)(F)[N+]4=C(c6ccc[nH]6)C=CC4=C5)cc32)CC1` [Clozapine-b-2-NB590], for which the “NanoBRET Fold Response” value is 1.01.

Still in this experiment, the particulars now being: F2RL2; 1μM tracer.
For `O=C(CCOCCOCCOCCOCCNC(=O)CCc1ccc2n1[B-](F)(F)[N+]1=C(c3ccc[nH]3)C=CC1=C2)NCCCN1CCN(C2=Nc3cc(Cl)ccc3Nc3ccccc32)CC1` [Clozapine-a-2-NB590], the “NanoBRET Fold Response” value was determined as 1.20.

For `CN1CCN(C2=Nc3cc(Cl)ccc3Nc3ccc(CNC(=O)CCOCCOCCOCCOCCNC(=O)CCc4ccc5n4[B-](F)(F)[N+]4=C(c6ccc[nH]6)C=CC4=C5)cc32)CC1` [Clozapine-b-2-NB590], the “NanoBRET Fold Response” value was found to be 1.02.

The same experiment, now with this note: F2RL2; tracer 0.1μM.
`CC(C)N(CC[C@H](c1ccccc1)c1cc(CCNC(=O)CCOCCOCCOCCOCCNC(=O)CCc2ccc3n2[B-](F)(F)[N+]2=C(c4ccc[nH]4)C=CC2=C3)ccc1O)C(C)C` [Tolterodine-2-NB590]: the “NanoBRET Fold Response” value amounted to 1.02.

The experiment is the same for the next values; noted with them: F2RL2; tracer 1μM.
Turning to `CC(C)N(CC[C@H](c1ccccc1)c1cc(CCNC(=O)CCOCCOCCOCCOCCNC(=O)CCc2ccc3n2[B-](F)(F)[N+]2=C(c4ccc[nH]4)C=CC2=C3)ccc1O)C(C)C` [Tolterodine-2-NB590], the “NanoBRET Fold Response” value is reported as 1.04.
